Where no end group is shown, it is not given here.
Legend:
[1] = Hypocretin via ventricular injection (osmotic minipump): running wheel activity and body weight; assay type: in vivo, rat; settings: third ventricle minipump, about 0.03 to about 600 μg/kg/day, vs control and untreated animals
Source text: The effect of hypocretin administration on the body weight of a normal rat or other rodent is investigated. The study includes ten animals in the experimental group, ten animals in the control group, and ten animals in the untreated group. […] Animals in the experimental and control groups are fitted with an Alzet Model 2004 osmotic minipump (Alza). The minipump delivers solution to the third ventricle of the brain, adjacent to the hypothalamus, for a one to six month period. The experimental group receives hypocretin peptide continuously at dosing regimes of about 0.03 μg/kg/day to about 600 μg/kg/day. The control group receives diluent. Animals in all groups are provided with a running wheel and customary rat chow is available ad libitum. Each animal is weighed daily (or another sign of excess body weight is measured), and the running wheel activity for each animal is recorded.

[2] = Activity of hypocretin in obese humans: wrist actigraph and body weight; assay type: in vivo; settings: about 0.03 to about 600 μg/kg/day for four weeks, vs placebo control group
Source text: Hypocretin or hypocretin agonist is submitted to safety testing following usual Food and Drug Administration (FDA) requirements. Afterward, the effect of administration of hypocretin or hypocretin agonist on obese humans is investigated. The study includes ten humans in the experimental group and ten humans in the control group. Humans in the experimental and control groups receive administration by intranasal inhalant, or by transdermal or other means. The experimental group receives hypocretin or hypocretin agonist at dosing regimes of about 0.03 μg/kg/day to about 600 μg/kg/day for a period of four weeks. The control group receives a placebo. Activity levels of the humans in both groups are measured with a wrist actigraph, and each human is weighed daily (or another sign of excess body weight is measured).
Each animal is weighed daily, and the running wheel activity for each animal is recorded.

[3] = Hypocretin via jugular catheter/osmotic minipump: running wheel activity and body weight; assay type: in vivo, rats; settings: about 0.03 to about 600 μg/kg/day, vs control and untreated animals
Protocol: The effect of administration of hypocretin-1 or other agonists of the hypocretin receptors on rats is investigated. The study includes ten animals in the experimental group, ten animals in the control group, and ten animals in the untreated group. […] Animals in the experimental and control groups receive a jugular catheter implant attached to an osmotic minipump. The experimental group receives hypocretin-1 or other agonist at dosing regimes of about 0.03 μg/kg/day to about 600 μg/kg/day. The control group receives diluent. Animals in all groups are provided with a running wheel and customary rat chow is available ad libitum. Each animal is weighed daily (or another sign of excess body weight is measured), and the running wheel activity for each animal is recorded.

[4] = Motor activity (actigraph) after Hcrt-1 injection; assay type: in vivo
Protocol: FIG. 1. Acute changes in motor activity after Hcrt-1 administration. (a) A representative actigraph record (5 minute bins) showing the activity level during the 2 hr period following Hcrt-1 (3 μg/kg) and normal saline. Hcrt-1 produced an increase in motor activity within 5 minutes of injection that persisted for 60 minutes. […] In (b) values are mean±SE, *p<0.05; **p<0.01, Newman-Keuls test.
The motor or muscular activity level of the individual can be measured by a variety of means. Motor activity levels may be directly observed and measured by clinicians, or the individual may themselves measure their activity level which typically includes body movement or locomotion. The monitoring can include maintaining a log of activity, including intensity and duration of the activity. An actigraph device, or activity monitor, may be used. An actigraph detects activity by sensing motion via an internal accelerometer. It is a small lightweight instrument that can be worn, for example, on the wrist, waist, or ankle to record physical activity. Actigraphs are often used to estimate energy expenditure or to study motion in an individual, as described in Example 4 and shown in FIG. 1.
The differences in amplitude of motor activity following hypocretin and saline injection diminished over the following 60 minutes (FIGS. 1a, 1b).

Hcrt-1 antiserum = assay: Solid-phase radioimmunoassay (RIA) for Hcrt-1; assay type: binding; settings: competition with 125I-labeled Hcrt-1 for immobilized antiserum
Protocol: FIG. 2. The protocol for a sequential multiple antigen radioimmunoassay for hypocretin-1 (Hcrt-1) and hypocretin-2 (Hcrt-2). Sample or standard is loaded into wells onto which antiserum for Hcrt-1 has been pre-adsorbed via protein-A Subsequently, radiolabeled Hcrt-1 (Hcrt-1*) is added to the wells. Competition for the antiserum then ensues between Hcrt-1 and Hcrt-1*. The contents of the wells are then transferred to new wells onto which antiserum for Hcrt-2 has been preadsorbed and the procedure repeated but with radiolabeled Hcrt-2 (Hcrt-2*). The previous wells are washed and counted for bound radioactivity. […]
Furthermore, sensitivity is increased over that obtained with more traditional methods using identical antibodies and assay volumes. […] For example, the individual wells of a 96-well plate containing Ab-bound tracer peptide are then physically separated and counted in a gamma counter. […]
The Hcrt-1, iodinated Hcrt-1, and Hcrt-1 antiserum were obtained from Phoenix Pharmaceuticals, Inc. (530 Harbor Blvd, Belmont, Calif.). […] This enables direct reading of radioactivity in a Top Count plate reader (Packard) without the requirement to separate out individual wells. […]
Prior to RIA, Hcrt-1 is extracted from the CSF or plasma sample. […] The eluant is then dried down and re-suspended in RIA buffer ready for assay. […]

[5] = Hcrt-1 3 μg/kg vs normal saline, actigraph record

Row | Substance | running wheel activity [1] | weight gain [1] | activity levels (wrist actigraph) [2] | weight loss [2] | running wheel activity [3] | weight gain [3] | motor activity ([4]; first 30 minutes after injection, vs saline injection) | IC50 value for this Hcrt-1 assay (Hcrt-1 antiserum) [fmol] | increase of motor activity as compared to saline control ([4]; 0-30 and 30-60 minutes after administration, Newman-Keuls test) | onset of increase in motor activity after injection [4, 5] [min] | persistence of increase in motor activity [4, 5] [min]
1 | hypocretin | increased running wheel activity | decreased weight gain | increased activity levels | greater weight loss | increased running wheel activity | decreased weight gain | increased motor activity |  |  |  | 
2 | hypocretin-1 (QPLPDCCRQKTCSCRLYELLHGAGNHAAGILTL; ends and bridges not checked; cysteine pairing not given here; UniProt O43612 34-66, looked up) [Hcrt-1, hypocretin neuropeptide derived from prepro-hypocretin; human orexin-A is reported as a 33 residue peptide of 3562 Da] |  |  |  |  |  |  |  | 2 | statistically significant | ≤ 5 | 60
